Experimental data from patent publication US20240009269A1 (priority 2020, published 2024).
No end group written: not given here.

Assays:
[1] = test system: mouse brain (blood-brain barrier); conditions: mouse, in vivo
Description: Briefly, male C57BL/6J mice (n=43, 6-8 weeks old, 20-25 g, Jackson Laboratory) were anesthetized with 2% isoflurane. The common carotid artery (CCA) bifurcation was exposed and the occipital artery branching off from the external carotid artery (ECA) was coagulated. The ECA and the pterygopalatine artery (PPA) were temporarily ligated with 4-0 silk sutures. A temporary ligature using a 4-0 suture was placed on the carotid bifurcation and the proximal CCA was permanently ligated. A microcatheter (PE-8-100, SAI Infusion Technologies) was flushed with 2% heparin (1,000 U mL^−1, heparin sodium, Upjohn), inserted into the CCA via a small arteriotomy, and advanced into the internal carotid artery (ICA).
For each animal, 150 μL of solution was infused at a rate of 150 μL minute^−1. […] The brains were harvested immediately after Evans Blue injection, sectioned in brain slicer matrix (Zivic Instruments) to produce 1 mm slabs.
Animal anesthesia was maintained at 1.5-2% during the MRI scan. Mice were placed on a water-heated animal bed equipped with temperature and respiratory control. Respiration was monitored and maintained at 30-60 minutes^−1. All MRI experiments were performed on a Bruker 11.7T MRI scanner. Baseline T2 (TR/TE=2,500/30 ms), susceptibility-weighted imaging (SWI) (TR/TE=378/8 ms), T1 (TR/TE 350/6.7 ms)-weighted, dynamic gradient echo echo-planar imaging (GE-EPI, TR/TE 1250/9.7 ms, field of view (FOV)=14×14 mm, matrix=128×128, acquisition time=60 s and 24 repetitions) and dynamic T1 imaging (TR/TE 2000/3. 5ms, field of view=14×14 mm, acquisition time=8 seconds and 20 repetitions) images of the brain were acquired. The microcatheter was connected to a syringe mounted on an MRI compatible programmable syringe pump (PHD 2000, Harvard Apparatus Inc.). Gadolinium (Gd; Prohance) dissolved in saline at 1:50 was infused intra-arterially at the rate of 150 μL minute^−1 under dynamic GE-EPI MRI for visualization of perfusion territory. […] To quantify BBB status, T1 intensities in cortex, hippocampus and thalamus/hypothalamus were compared between ipsilateral and contralateral hemispheres. T1 hyperintensity was corrected for possible asymmetry using pre-contrast T1 images and normalized as the ratio of ipsilateral to contralateral intensity. Additionally, the area of BBBO (mm^2) was calculated by conversion of T1 images to binary using the Auto Threshold function (plugin v1.17; Maximum Entropy method) [Kapur, J. N., P. K. Sahoo, and A. K. C. Wong, Computer Vision, Graphics, and Image Processing, 1985, 29(3): p. 273-285] in ImageJ. T2-weighted and SWI images were acquired at the same timepoints for detection of brain damage and microhemorrhage. Subsequently, animals were sacrificed for further histological assessment.
To determine the area and region of perfusion territory, we first calculated the contrast enhancement maps at the time where contrast enhancement was at its maximum. As Gd causes negative contrast under T2 imaging, we calculated the contrast enhancement as (SIpre-SIpost)/SIpre, where SI is the signal intensity of an MR image. Histogram was plotted for all pixels in the brain region in a contrast enhancement map and further fitted into two Gaussian distributions, assuming there were two dominant populations for non-contrast enhanced and contrast-enhanced pixels, respectively. The cutoff value to separate the two populations was then determined. The fraction of contrast enhanced areas was calculated by the ratio of the number of pixels, whose values are larger than the cutoff value, to the total number of pixels in the brain. A similar method was used to determine the BBBO territory.

[2] = cited from earlier work
blood-brain barrier = conditions: cited from earlier work
[3] = test system: tissue-engineered dhBMECs microvessels; assay: BBB opening in tissue-engineered BBB microvessels (500 kDa dextran leakage); format: cell-based, human
Method: Three-dimensional blood-brain barrier microvessels were fabricated as previously reported (FIGS. 10A and 10B) [Linville, R. M., et al., Biomaterials, 2019. 190-191: p. 24-37] 150 μm diameter and 1 cm long channels were patterned in 7 mg mL^−1 type I collagen (Corning) using nitinol wire (Malin Co.) housed within polydimethylsiloxane (PDMS; Dow Corning). Channels were cross-linked by incubation in 20 mM genipin (Wako Biosciences) for 2 hours to increase cell adhesion. 2dhBMECs were suspended in BBB induction medium at a concentration of 5×10^6 cells mL^−1 and seeded into channels. Microvessels were perfused using BBB induction medium for 24 hours and then switched to BBB maintenance medium. During cell seeding and the first day of perfusion, 10 μM ROCK inhibitor Y27632 (ATCC) was supplemented to increase adhesion. An average shear stress of ˜2 dyn cm^−2 was maintained with a reservoir height difference (Δh) of 3 cm, corresponding to a volumetric flow rate of ˜250 μL h^−1 (FIG. 11D). This shear stress was estimated from the Poiseuille equation: τ=μQ)/2πd3 where μ is the media dynamic viscosity, Q is the volumetric flow rate, and d is the microvessel diameter.
Live-cell imaging was conducted to study dynamic changes in in vitro BBB permeability and microvessel structure. Microvessels were imaged using a 10×objective equipped on an inverted microscope (Nikon Eclipse TiE) maintained at 37° C. and 5% CO2 (FIG. S2C). Epifluorescence illumination was provided by an X-Cite 120LEDBoost (Excelitas Technologies). Phase contrast and fluorescence images were acquired every two minutes with the focal plane set to the microvessel midplane. The entire image collected consists of ten adjacent imaging frames. […] A dextran solute panel comprised of 200 μM Cascade Blue-conjugated 3 kDa dextran (Cat. No. D7132. Thermo Fisher Scientific), 16 μM Alexa Fluor647-conjugated 10 kDa dextran (Cat. No. D22914, Thermo Fisher Scientific), and 1.2 μM fluorescein-conjugated 500 kDa dextran (Cat. No. D7136, Thermo Fisher Scientific) was prepared in BBB maintenance medium. Fluorophores were independently excited and the respective emissions were collected using: Nikon UV-2E/C for 3 kDa dextran (50 ms exposure), Chroma 41008 for 10 kDa dextran (20 ms exposure), and Nikon B-2E/C for 500 kDa dextran (50 ms exposure).
Image processing was performed using ImageJ (NIH) to quantify BBB opening (FIGS. 11A-11D). First, images were cropped to a standard size of 6 mm×0.6 mm. To determine the spatial heterogeneity of BBB permeability, microvessels were sectioned into 10 regions of interest (ROIs), each a 0.6 mm×0.6 mm square (FIG. 11A). For each ROI, the integrated pixel density was plotted over time (FIG. 11A). The permeability (cm s^−1) was calculated using P=(r/2)(1/ΔI)(dI/dt), where r is the vessel radius, ΔI is the increase in fluorescence intensity upon perfusion of the fluorophore, and (dI/dt) is the rate of increase in fluorescence intensity as solute exits into the gel. […] To visually display permeability dynamics, heatmaps were generated from 90 instantaneous permeability values across the 10 ROIs (x-axis) and nine 10-minute periods (y-axis). […] 28(1): p. 41-51 in ImageJ (FIG. 11B). Under baseline conditions, thresholding results in the lumen designated as white (1) and extracellular matrix (ECM) as black (0). […] From binarized images, individual focal leaks were manually counted over time. Leaks emerging from the sides of the image frame were not counted. To quantify the duration of a BBB opening effect, we identified the time at which the last focal leak appeared and termed the focal leak reversibility time constant (τfocal leaks).

[4] = 25, 50, and 100 μM·minute doses

**Q.** With `OC[C@@H](O)[C@@H](O)[C@H](O)[C@H](O)CO` [mannitol] as the molecule, how does the “extent of BBBO compared with 3 μM·minute melittin” value [1] read?
**A.** The value was “similar”.

**Q.** And the solubility limit [2]?
**A.** Its solubility limit is “around 1.4 M”.

**Q.** And the “concentration above which BBBO is induced” value (blood-brain barrier)?
**A.** The value was > 1.1 M.

**Q.** With “GIGAVLKVLTTGLPALISWIKRKRQQ-NH2 [melittin-CONH2]” as the molecule, how does the “slope of focal leak reversibility versus dose” value ([3]; compared across four variants) read?
**A.** The value was “highest slope”.

**Q.** Which BBBO [3, 4] does the source give for “RVGALKQTAIPVKSLIWGRQLIGLKT-NH2 [Mel-Scramble, reference compound]” here?
**A.** Its BBBO is “did not induce BBBO”.

**Q.** What about the “change in the permeability of 500 kDa dextran following perfusion” value [3, 4] of the same molecule?
**A.** Its value is “no change”.

**Q.** And the “focal leaks during or 24 hours after perfusion” value [3, 4]?
**A.** The value was “no focal leaks were observed”.
